This is an account of results in ChEMBL document CHEMBL1127001, “Novel sigma receptor ligands 2” (Bioorg Med Chem Lett, 1993).

SMILES strings stand for the structures.

The target in assay [1] is D(2) dopamine receptor (Homo sapiens, UniProt P14416). Nature of the assay: Binding affinity towards dopamine D2 receptor using radiolabeled ligand [3H]spiperone.
Assay [2] deals with T1, Sigma non-opioid intracellular receptor 1 (Homo sapiens, UniProt Q99720). Nature of the assay: Binding affinity for sigma receptor using [3H]-(+)-SKF- 10,047.
T1 sequence (Q99720 whole entry): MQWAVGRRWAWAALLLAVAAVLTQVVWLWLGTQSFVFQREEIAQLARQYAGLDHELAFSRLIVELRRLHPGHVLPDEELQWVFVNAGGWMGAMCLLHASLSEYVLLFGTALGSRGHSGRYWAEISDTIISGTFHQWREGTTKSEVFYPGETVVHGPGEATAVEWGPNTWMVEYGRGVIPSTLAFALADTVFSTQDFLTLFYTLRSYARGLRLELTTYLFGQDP
Assay [3] deals with Glutamate NMDA receptor. Nature of the assay: Binding affinity towards PCP receptor in rat brain membrane using radiolabeled ligand [3H]TCP (1-[1-(2-thienyl)cyclohexyl]piperidine) was determined. The class given is cell membranes.
Assay [4] is described as follows: Binding affinity towards dopamine D2 receptor using radiolabeled ligand [3H]spiperone.
The target of assay [5] is T1, Sigma non-opioid intracellular receptor 1. Description: Binding affinity towards sigma receptor using radiolabeled ligand [3H]-(+)-SKF- 10,047 was determined.

D(2) dopamine receptor, sequence (P14416 whole entry): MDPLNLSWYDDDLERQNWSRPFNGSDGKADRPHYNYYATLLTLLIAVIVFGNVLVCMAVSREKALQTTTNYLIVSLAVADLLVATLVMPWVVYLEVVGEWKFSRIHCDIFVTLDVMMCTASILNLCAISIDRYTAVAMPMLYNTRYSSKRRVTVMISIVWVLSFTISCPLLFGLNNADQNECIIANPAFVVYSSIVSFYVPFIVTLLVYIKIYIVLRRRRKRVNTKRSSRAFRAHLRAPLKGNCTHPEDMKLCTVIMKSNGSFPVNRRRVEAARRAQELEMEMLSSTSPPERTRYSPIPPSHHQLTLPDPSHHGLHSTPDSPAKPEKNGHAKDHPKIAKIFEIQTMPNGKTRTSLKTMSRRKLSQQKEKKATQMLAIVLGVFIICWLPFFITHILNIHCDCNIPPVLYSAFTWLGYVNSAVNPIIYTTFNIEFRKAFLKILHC

As a reminder, the Ki is a measure of affinity in units of concentration, obtained from inhibition or displacement. Higher therefore signals a looser hold on the target. Regarding `COc1ccc(C2=COC3(CCN(CCc4ccccc4)CC3)CC2=O)cc1`, the inhibitory constant (Ki) stood at 1.5 µM in assay [1] and 0.03 µM in assay [2].

As to `CN1C2CCC1CC1(CC(=O)C(c3ccccc3)=CO1)C2` (single isomer, unassigned; (-)), the inhibitory constant (Ki) is more than 10 µM in assay [1] and 1.83 µM in assay [2].

Regarding `CN1CCC2(CC1)CC(=O)C(c1ccc(F)cc1)=CO2`, the figures for the Ki in assay [1] and in assay [2] were more than 100 µM and 7.3 µM, respectively.

Regarding `CN1CCC2(CC1)CC(=O)C(c1ccccc1)=CO2`, the Ki in assay [1] is more than 100 µM; in assay [2] it was 6.88 µM.

As for `CN(C)CC1(C)CC(=O)C(c2ccccc2)=CO1` (single isomer, unassigned; (-)), the figures for the inhibition constant (Ki) in assay [1] and in assay [2] were 4.1 µM and 0.352 µM, respectively.

As for `O=C1CC2(CCN(CCc3ccccc3)CC2)OCC1c1ccc(F)cc1` (stereo not drawn), the values for the Ki in assay [1] and in assay [3] were 1.53 µM and 14 µM, respectively.

For `O=C1C(c2ccc(F)cc2)COC12CCN(Cc1ccccc1)CC2` (single isomer, unassigned; (-)), the Ki in assay [3] was determined as 2.23 µM; in assay [4], 0.047 µM.

Take `O=C1C=C(c2ccccc2)OC2(CCN(CCc3ccccc3)CC2)C1`: the Ki in assay [1] was 4.2 µM; in assay [2] it was 0.01 µM.

Regarding `O=C1C=C(c2ccco2)OC2(CCN(CCc3ccccc3)CC2)C1`, the results for the Ki in assay [1] and in assay [2] were 7.6 µM and 0.07 µM, respectively.

For `O=C1CC2(CCN(CCc3ccccc3)CC2)OC=C1c1ccccc1`, the inhibition constant Ki in assay [1] is 2.03 µM; in assay [3] it was more than 10 µM; in assay [5], 0.005 µM.

Turning to `O=C1C[C@]2(CC[C@@H](OCc3ccccc3)CC2)OC=C1c1ccccc1`, the Ki in assay [1] and in assay [3] was more than 10 µM in each case.

With `O=C1C[C@]2(CC[C@H](OCc3ccccc3)CC2)OC=C1c1ccccc1`, the Ki in assay [1] and in assay [3] was more than 10 µM in each case.

With `O=C1CC2(CCCN(Cc3ccccc3)C2)OC=C1c1ccc(F)cc1` (single isomer, unassigned; (-)), the Ki is 8.78 µM in assay [1], more than 10 µM in assay [3] and 0.131 µM in assay [5].

Consider `O=C1CC2(CN3CCC2CC3)OC=C1c1ccccc1` (stereo not drawn), for which the Ki in assay [1] was more than 10 µM; in assay [2], 1.59 µM.

For `O=C1CC2(CCN(CCc3ccccc3)CC2)OC=C1c1cccs1`, the Ki in assay [1] stood at 1.08 µM; in assay [2] it was 0.007 µM.

Take `O=C1CC2(CCN(CCc3ccccc3)CC2)OC=C1c1ccccc1F`: the Ki in assay [1] was 2.33 µM; in assay [3], 30 µM; in assay [5] it was 0.001 µM.

In assay [1], `O=C1CC2(CCN(Cc3ccccc3)CC2)OC=C1c1ccccc1` gave a Ki of 1.46 µM.

`O=C1CC2(CCN(CCc3ccccc3)CC2)OC=C1c1ccc(F)cc1`: the Ki in assay [1] is 2.9 µM; in assay [3], 1.69 µM; in assay [5], 0.006 µM.

Turning to `O=C1CC2(CCCN(Cc3ccccc3)C2)OC=C1c1ccccc1` (single isomer, unassigned; (-)), affinity in assay [2] was put at a Ki of 0.013 µM.

For `CCN(CC)CCCC1(C)CC(=O)C(c2ccccc2)=CO1` (single isomer, unassigned; (-)), the Ki was more than 10 µM in assay [1], more than 10 µM in assay [3] and 0.034 µM in assay [5].
